Molecules are shown by their SMILES.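 Dose response: 5 concentrations. Exposure: 48 h. Format: 96-well plates. Endpoint: linear interpolation; highest concentration if not reached. Here, GI50 denotes the concentration required for 50% inhibition of growth. TGI marks complete inhibition of growth.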 Bounds are passed on as bounds.

Common to all, as to test: DTP human tumour cell line panel, 48 h
Experiment [1] deals with DU-145 prostate.
The subject of experiment [2] is HOP-62 NSCLC.
The subject of experiment [3] is HOP-92 NSCLC.
For experiment [4], the system named is K-562 leukemia.
The subject of experiment [5] is KM12 colon.
Experiment [6] concerns OVCAR-3 ovarian.
The subject of experiment [7] is OVCAR-8 ovarian.
Experiment [8] deals with SK-MEL-5 melanoma.
For experiment [9], the system named is SR leukemia.
The test system of experiment [10] is NCI/ADR-RES ovarian.

By TGI is commonly meant the concentration giving total growth inhibition. Higher therefore signals lower sensitivity of the cells. Take `O=CN/C=C/c1ccccc1`: the TGI in experiment [1] was more than 100 µM; in experiment [2], more than 100 µM; in experiment [3], more than 100 µM; in experiment [4], more than 31.6 µM; in [5], more than 100 µM; in experiment [6], more than 100 µM. Besides, the TGI in [7], in experiment [8] and in experiment [9] was more than 100 µM each time.
As to `O=C1CCCc2ccc([N+](=O)[O-])c(O)c21`, the TGI in experiment [2], in experiment [3], in experiment [4], in [5], in experiment [6] and in [7] was more than 100 µM each time. The TGI in [8] and in [9] was more than 100 µM throughout.
In general, GI50 refers to the concentration giving 50% growth inhibition. In the case of `COC(=O)c1c2c(c(C)[n+]([O-])c1C)C(=O)C(NCc1ccccc1)=CC2=O`, the GI50 is 3.5 µM in experiment [1]; 3.1 µM in [2]; 2.8 µM in experiment [3]; 2.94 µM in [4]; 2.4 µM in [5]; 0.613 µM in experiment [6]. In addition, the GI50 was 2.32 µM in [7], 1.23 µM in experiment [8] and 3 µM in experiment [9]. In addition, the TGI in experiment [1] came to 11.2 µM; in experiment [2] it was 17.9 µM; in experiment [3] it was 6.61 µM; in experiment [4], 16.3 µM; in experiment [5], 9.6 µM; in experiment [6] it was 3.67 µM. Further, the TGI in experiment [7] was determined as 8.73 µM; in experiment [8], 2.5 µM; in experiment [9], 31.4 µM.
For `CC(=O)N1c2ccccc2N(C(C)=O)C1c1ccc(C2N(C(C)=O)c3ccccc3N2C(C)=O)[nH]1`, the TGI in experiment [2], in experiment [3], in experiment [4], in [5], in [6] and in experiment [7] was more than 100 µM each time. The TGI in experiment [8] and in experiment [9] was more than 100 µM each time.
As to `COc1ccc(C2(Cl)C(Cl)(C(F)(F)F)C2(Cl)C(F)(F)F)cc1` (stereo not given), the TGI is 32.5 µM in experiment [2]; 27.1 µM in [3]; more than 100 µM in experiment [4]; 27 µM in experiment [5]; 28.8 µM in experiment [6]; 25.2 µM in experiment [7]. Further, the TGI in experiment [8] worked out at 22.1 µM; in experiment [9] it was 30.7 µM.
For `N#CC(Sc1ccccc1)C(N)=O` (stereo not given), the TGI in experiment [2], in [3], in experiment [4], in [5], in experiment [6] and in experiment [7] was more than 100 µM in each case. Besides, the TGI in experiment [8] and in experiment [9] was more than 100 µM each time.
Regarding `C=CCCn1nc(-c2ccccc2)oc1=O`, the TGI in experiment [2], in [3], in experiment [4], in experiment [5], in experiment [6] and in experiment [7] was more than 100 µM throughout. Moreover, the TGI in experiment [8] and in [9] was more than 100 µM throughout.
As for `C=CC12CCCCC1CC(C(=O)OC)=C(O)C2` (stereo not given), the TGI in experiment [2], in experiment [3], in experiment [4], in experiment [5], in experiment [6] and in experiment [7] was more than 100 µM in each case. For the same compound, the TGI in experiment [8] and in experiment [9] was more than 100 µM throughout.
On to `CCCCCCOC(=O)CC1=C(C)/C(=C/c2[nH]c(-c3ccc[nH]3)cc2OC)N=C1C`, for which the GI50 in experiment [1] was 0.0728 µM; in experiment [2] it was 0.0982 µM; in [3] it was 0.0332 µM; in [5] it was 0.0535 µM; in experiment [10] it was 0.135 µM; in [6] it was 0.168 µM. Besides, the GI50 in [7] was 0.238 µM; in experiment [9], 0.0307 µM. Also, the TGI was found to be 1.86 µM in experiment [1]; 1.15 µM in experiment [2]; 0.351 µM in [3]; 1.4 µM in experiment [5]; 1.33 µM in [10]; 1.15 µM in experiment [6]. Moreover, the TGI in experiment [7] was 1.21 µM; in [9], 0.182 µM.
For `Clc1ccc(-c2cnc3c(-c4ccnc(N5CCNCC5)c4)cnn3c2)cc1`, the GI50 in [1] is 1.64 µM; in experiment [2], 1.92 µM; in experiment [4] it was 1.84 µM; in [5], 1.87 µM; in [6], 1.96 µM; in experiment [7], 2.21 µM. For the same compound, the GI50 in experiment [8] is 1.79 µM; in experiment [9] it was 1.6 µM. The TGI in experiment [1] was 3.02 µM; in experiment [2], 3.38 µM; in experiment [4], 3.74 µM; in experiment [5], 3.43 µM; in [6] it was 3.42 µM; in experiment [7], 4.31 µM. Moreover, the results for the TGI in [8] and in [9] were 3.22 µM and 4.58 µM, respectively.
Consider `Cn1cnc([N+](=O)[O-])c1Sc1n[nH]c(-c2ccc(Cl)cc2)n1`, for which the TGI worked out at 54.9 µM in [2]; 37.6 µM in experiment [3]; 51.3 µM in [4]; 39.2 µM in [5]; 40.4 µM in experiment [6]; 32.4 µM in experiment [7]. Besides, the TGI amounted to 29.8 µM in [8] and 42 µM in experiment [9].

The values are drawn from PubChem BioAssay (NCI).
